Test results reported in US10676496B2, “Method for producing flavonoid inclusion compound” (TAIYO KAGAKU CO., LTD., priority 2017, dated 2020).
Like-named read-outs stand apart in the source and are kept apart here.

Tests used:
[1] = Evaluation of bioavailability; assay type: in vivo
From the text: Evaluation of Bioavailability
Nine-week-old Wister rats (male) were given with MF (Oriental Yeast Co., Ltd.) and bred for 7 days, and the rats were then subjected to fasting from the day before the administration of a test substance. Thereafter, 100 μmol/kg (calculated as IQC) of a dried product of Example 16 prepared in the evaluation of the effects of preventing flavor deterioration, a rutin suspension (Alps Pharmaceutical Ind., Co., Ltd., 100 μmol/kg (calculated as IQC)), 1,000 μmol/kg (calculated as HPT-7G) of dried product of Example 22 prepared in the evaluations of the effects of preventing flavor deterioration, and a hesperidin suspension (Hamari Chemicals., Ltd., 1,000 μmol/kg (calculated as HPT-7G)) were orally administered to the rats in a single dose (orally administered by gavage, n=2). Blood collection into heparinized tubes was carried out from tail veins of rats 30 minutes, 1 hour and 3 hours after the administration, and the blood was centrifuged to obtain plasma. In the drawn sera sample, the amounts of quercetin derivatives were measured according to a method by Makino et al (Biol. pharm. Bull., 32(12) 2034, 2009), and the amounts of hesperetin derivatives were measured according to a method by Yamada et al (Biosci. Biotechnol. Biochem, 70(6), 1386, 2006), and analysis was made by applying the sample to high-performance liquid chromatography (SHIMADZU) and using a photodiode array detector (SPD-M30A, SHIMADZU).

[2] = Evaluation of storage stability (green tea); assay type: physicochemical; conditions: 0.03% as hesperetin-7-glucoside; for presence or absence of the precipitates, 4° C.: 7 days at 4° C.; for presence or absence of the precipitates, 25° C.: 7 days at 25° C.
Experimental: Evaluation of Storage Stability (Green Tea)
Hesperidin (manufactured by Hamari Chemicals., Ltd.), hesperetin-7-glucoside (prepared in the following), a flavonoid inclusion compound of Example 22 or a composition of flavonoid glycosides of Example 40 was added to a commercially available green tea (“Oi Ocha,” manufactured by ITO EN, LTD.) so as to have a concentration calculated as 0.03% in terms of hesperetin-7-glucoside conversion. The mixture was allowed to stand for 7 days at 4° C. and 25° C., and the presence or absence of the precipitates was then visually observed.
Seven grams of Hesperidin (manufactured by Hamari Chemicals., Ltd.) was added to […] of an aqueous solution, and the solution was adjusted to 70° C. and a pH of 4.5. Thereafter, 0.5 g of naringinase (Amano Enzyme Inc. 155 u/g) was added thereto while stirring, and the solution was recovered and dried, to give 4.2 g of hesperetin-7-glucoside having a content of 96% or more. Identification as being hesperetin-7-glucoside and a content thereof were analyzed by NMR and HPLC in the same manner as mentioned above.

[3] = cited from earlier work
[4] = Evaluation of storage stability (lemon beverage); assay type: physicochemical; conditions: 0.3% as naringenin-7-glucoside; for presence or absence of the precipitates, 4° C.: 1 month at 4° C.; for presence or absence of the precipitates, 25° C.: 1 month at 25° C.
Experimental: Evaluation of Storage Stability (Lemon Beverage)
Naringin (manufactured by SIGMA), naringenin-7-glucoside (prepared hereinbelow) or a flavonoid inclusion compound-containing composition of Example 109 was added to a commercially available lemon beverage (C1000 Lemon Water, manufactured by HOUSE […] FOODS CORPORATION) so as to have a concentration calculated as 0.3% in terms of naringenin-7-glucoside conversion, the beverage was allowed to stand for 1 month at 4° C. or 25° C., and the presence or absence of the precipitates was then visually observed.
After the termination of the reaction according to Comparative Example 102, the precipitates that were previously allowed to stand at room temperature were recovered, washed with water, recrystallized and dried, to give 13 g of naringenin-7-glucoside having a content of 95% or more. The identity of the product with a reagent naringenin-7-glucoside (Wako) by HPLC and a content thereof were analyzed.

[5] = compared with rutin, hesperidin, or naringin having a rhamnoside structure

C[C@@H]1O[C@@H](OC[C@H]2O[C@@H](Oc3c(-c4ccc(O)c(O)c4)oc4cc(O)cc(O)c4c3=O)[C@H](O)[C@@H](O)[C@@H]2O)[C@H](O)[C@H](O)[C@H]1O [Rutin Suspension, rutin]
AUC, Total (quercetin and quercetin derivatives) ([1]; male, Wister, rat, in vivo, po, 100 umol/kg): 0.1 µM·h

COc1ccc([C@@H]2CC(=O)c3c(O)cc(O[C@@H]4O[C@H](CO[C@@H]5O[C@@H](C)[C@H](O)[C@@H](O)[C@H]5O)[C@@H](O)[C@H](O)[C@H]4O)cc3O2)cc1O [Hesperidin]
AUC, hesperetin ([1]; rat plasma, single oral 1,000 μmol/kg (calculated as HPT-7G), 0 to 3 hours): 0.082 µM·h | Hesperetin concentration ([1]; rat plasma, single oral 1,000 μmol/kg (calculated as HPT-7G), time of blood drawing 0): 0 µM | Hesperetin concentration ([1]; rat plasma, single oral 1,000 μmol/kg (calculated as HPT-7G), time of blood drawing 0.5 (hours)): 0.003 µM | Hesperetin concentration ([1]; rat plasma, single oral 1,000 μmol/kg (calculated as HPT-7G), time of blood drawing 1 (hour)): 0.064 µM | Hesperetin concentration ([1]; rat plasma, single oral 1,000 μmol/kg (calculated as HPT-7G), time of blood drawing 3 (hours)): 0 µM | presence or absence of the precipitates, 4° C. [2]: x (those in which the precipitates were observed were evaluated as x) | presence or absence of the precipitates, 25° C. [2]: x (those in which the precipitates were observed were evaluated as x)

O=C1C[C@@H](c2ccc(O)cc2)Oc2cc(O)cc(O)c21 [naringenin]
bioavailability in rats [3, 5]: higher

O=C1C[C@@H](c2ccc(O)cc2)Oc2cc(O[C@@H]3O[C@H](CO)[C@@H](O)[C@H](O)[C@H]3O)cc(O)c21 [Naringenin-7-glucoside, naringenin-7-glucoside]
bioavailability in rats [3, 5]: higher | presence or absence of the precipitates, 4° C. [4]: x (those in which the precipitates were observed were evaluated as x) | presence or absence of the precipitates, 25° C. [4]: x (those in which the precipitates were observed were evaluated as x)

C[C@@H]1O[C@@H](O[C@H]2[C@H](Oc3cc(O)c4c(c3)O[C@H](c3ccc(O)cc3)CC4=O)O[C@H](CO)[C@@H](O)[C@@H]2O)[C@H](O)[C@H](O)[C@H]1O [Naringin]
presence or absence of the precipitates, 4° C. [4]: x (those in which the precipitates were observed were evaluated as x) | presence or absence of the precipitates, 25° C. [4]: x (those in which the precipitates were observed were evaluated as x)

O=c1c(O[C@@H]2O[C@H](CO)[C@@H](O)[C@H](O)[C@H]2O)c(-c2ccc(O)c(O)c2)oc2cc(O)cc(O)c12 [Isoquercitrin, isoquercitrin]
bioavailability in rats [3, 5]: higher

COc1ccc(C2CC(=O)c3c(O)cc(OC4OC(CO)C(O)C(O)C4O)cc3O2)cc1O (stereo not drawn) [Hesperetin-7-Glucoside, hesperetin-7-glucoside]
bioavailability in rats ([3]; rat, in vivo): higher | presence or absence of the precipitates, 4° C. [2]: x (those in which the precipitates were observed were evaluated as x) | presence or absence of the precipitates, 25° C. [2]: x (those in which the precipitates were observed were evaluated as x)
